Values joined by “and” are separate entries in the source; they are usually repeats but may differ in a detail not shown here. Identical values can stand only once. Inconclusive results and toxic doses are left out.
System: L1210 leukemia ip in BDF1 mice, survival T/C
Test: NCI In Vivo Anticancer Drug Screen. Data for tumor model L1210 Leukemia (intraperitoneal) in B6D2F1 (BDF1) mice
Settings: endpoint: mean survival time, higher = longer survival
Method in brief: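 Value reflects the ratio of survival in compound-treated mice to survival in vehicle-treated controls, with both groups carrying the same transplanted tumor.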

In the case of `O=NN(CCF)C(=O)NC1CCCCC1`, the T/C (dose: 0.33 mg/kg/injection, schedule: Q#B X003 (ip), vehicle: other) is reported as 109 % of control, the T/C (dose: 0.66 mg/kg/injection, schedule: Q#B X003 (ip), vehicle: other) is reported as 119 % of control and the T/C (dose: 0.93 mg/kg/injection, schedule: Q01DX001 (ip), vehicle: carboxymethylcellulose (CMC)) is reported as 102 % of control. For the same compound, the T/C (dose: 1.33 mg/kg/injection, schedule: Q#B X003 (ip), vehicle: other) was 121 % of control, the T/C (dose: 1.56 mg/kg/injection, schedule: Q03HX032 (ip), vehicle: carboxymethylcellulose (CMC)) was 111 % of control and the T/C (dose: 1.87 mg/kg/injection, schedule: Q01DX001 (ip), vehicle: carboxymethylcellulose (CMC)) was 102 % of control. The T/C (dose: 2.97 mg/kg/injection, schedule: Q01DX015 (ip), vehicle: other) was 96 % of control and 117 % of control, the T/C (dose: 3.12 mg/kg/injection, schedule: Q01DX001 (sc), vehicle: other) was 122 % of control and the T/C (dose: 3.12 mg/kg/injection, schedule: Q03HX008 (ip), vehicle: carboxymethylcellulose (CMC)) was 188 % of control. For the same compound, the T/C (dose: 3.12 mg/kg/injection, schedule: Q03HX032 (ip), vehicle: carboxymethylcellulose (CMC)) was 416 % of control, the T/C (dose: 3.12 mg/kg/injection, schedule: Q03HX032 (oral), vehicle: carboxymethylcellulose (CMC)) was 177 % of control and the T/C (dose: 3.75 mg/kg/injection, schedule: Q01DX001 (ip), vehicle: carboxymethylcellulose (CMC)) was 112 % of control. For the same compound, the T/C (dose: 5.0 mg/kg/injection, schedule: Q01DX001 (ip), vehicle: carboxymethylcellulose (CMC)) was 108 % of control, the T/C (dose: 6.0 mg/kg/injection, schedule: Q02DX008 (ip), vehicle: other) was 157 % of control and 160 % of control and the T/C (dose: 6.25 mg/kg/injection, schedule: Q01DX001 (sc), vehicle: other) was 117 % of control. The T/C (dose: 6.25 mg/kg/injection, schedule: Q01DX013 (ip), vehicle: carboxymethylcellulose (CMC)) was 122 % of control, the T/C (dose: 6.25 mg/kg/injection, schedule: Q03HX008 (oral), vehicle: carboxymethylcellulose (CMC)) was 605 % of control and the T/C (dose: 6.25 mg/kg/injection, schedule: Q03HX032 (oral), vehicle: carboxymethylcellulose (CMC)) was 288 % of control. The T/C (dose: 6.25 mg/kg/injection, schedule: Q## X006 (ip), vehicle: carboxymethylcellulose (CMC)) was 111 % of control, the T/C (dose: 6.25 mg/kg/injection, schedule: Q## X006 (oral), vehicle: carboxymethylcellulose (CMC)) was 305 % of control and the T/C (dose: 6.75 mg/kg/injection, schedule: Q01DX015 (ip), vehicle: other) was 448 % of control and 489 % of control. For the same compound, the T/C (dose: 9.0 mg/kg/injection, schedule: Q02DX008 (ip), vehicle: other) was 345 % of control and 397 % of control, the T/C (dose: 10.0 mg/kg/injection, schedule: Q01DX015 (ip), vehicle: other) was 424 % of control and 524 % of control and the T/C (dose: 12.0 mg/kg/injection, schedule: Q## X004 (ip), vehicle: other) was 370 % of control and 608 % of control. The T/C (dose: 12.5 mg/kg/injection, schedule: Q01DX001 (ip), vehicle: carboxymethylcellulose (CMC)) was 183 % of control, the T/C (dose: 12.5 mg/kg/injection, schedule: Q01DX001 (sc), vehicle: other) was 157 % of control and the T/C (dose: 12.5 mg/kg/injection, schedule: Q01DX013 (ip), vehicle: carboxymethylcellulose (CMC)) was 183 % of control. The T/C (dose: 12.5 mg/kg/injection, schedule: Q03HX032 (oral), vehicle: carboxymethylcellulose (CMC)) was 255 % of control, the T/C (dose: 12.5 mg/kg/injection, schedule: Q## X006 (ip), vehicle: carboxymethylcellulose (CMC)) was 155 % of control and the T/C (dose: 13.5 mg/kg/injection, schedule: Q01DX001 (ip), vehicle: other) was 187 % of control. For the same compound, the T/C (dose: 13.5 mg/kg/injection, schedule: Q01DX001 (oral), vehicle: other) was 178 % of control and 183 % of control, the T/C (dose: 13.5 mg/kg/injection, schedule: Q02DX008 (ip), vehicle: other) was 456 % of control and 470 % of control and the T/C (dose: 13.5 mg/kg/injection, schedule: Q## X001 (ip), vehicle: other) was 247 % of control. The T/C (dose: 13.5 mg/kg/injection, schedule: Q## X001 (oral), vehicle: other) was 253 % of control, the T/C (dose: 14.0 mg/kg/injection, schedule: Q## X032 (ip), vehicle: other) was 341 % of control and the T/C (dose: 15.0 mg/kg/injection, schedule: Q01DX001 (ip), vehicle: carboxymethylcellulose (CMC)) was 174 % of control. The T/C (dose: 15.0 mg/kg/injection, schedule: Q01DX015 (ip), vehicle: other) was 158 % of control and 438 % of control, the T/C (dose: 16.2 mg/kg/injection, schedule: Q01DX001 (ip), vehicle: other) was 314 % of control and the T/C (dose: 18.0 mg/kg/injection, schedule: Q## X004 (ip), vehicle: other) was 601 % of control and 682 % of control. The T/C (dose: 20.0 mg/kg/injection, schedule: Q01DX001 (ip), vehicle: carboxymethylcellulose (CMC)) was 250 % of control, the T/C (dose: 20.0 mg/kg/injection, schedule: Q02DX008 (ip), vehicle: other) was 380 % of control and 649 % of control and the T/C (dose: 22.0 mg/kg/injection, schedule: Q## X032 (ip), vehicle: other) was 240 % of control. The T/C (dose: 23.0 mg/kg/injection, schedule: Q01DX001 (ip), vehicle: other) was 238 % of control, the T/C (dose: 25.0 mg/kg/injection, schedule: Q01DX001 (ip), vehicle: carboxymethylcellulose (CMC)) was 192 % of control and the T/C (dose: 25.0 mg/kg/injection, schedule: Q01DX001 (oral), vehicle: carboxymethylcellulose (CMC)) was 616 % of control and 733 % of control. For the same compound, the T/C (dose: 25.0 mg/kg/injection, schedule: Q01DX001 (sc), vehicle: carboxymethylcellulose (CMC)) was 216 % of control, the T/C (dose: 25.0 mg/kg/injection, schedule: Q01DX001 (sc), vehicle: other) was 317 % of control and the T/C (dose: 25.0 mg/kg/injection, schedule: Q01DX005 (oral), vehicle: carboxymethylcellulose (CMC)) was 344 % of control. The T/C (dose: 25.0 mg/kg/injection, schedule: Q## X006 (ip), vehicle: carboxymethylcellulose (CMC)) was 733 % of control, the T/C (dose: 25.0 mg/kg/injection, schedule: Q## X006 (oral), vehicle: carboxymethylcellulose (CMC)) was 355 % of control and the T/C (dose: 27.0 mg/kg/injection, schedule: Q01DX001 (ip), vehicle: other) was 241 % of control and 302 % of control. The T/C (dose: 27.0 mg/kg/injection, schedule: Q01DX001 (oral), vehicle: other) was 264 % of control and 289 % of control, the T/C (dose: 27.0 mg/kg/injection, schedule: Q## X001 (ip), vehicle: other) was 447 % of control and the T/C (dose: 27.0 mg/kg/injection, schedule: Q## X001 (oral), vehicle: other) was 280 % of control and 426 % of control. For the same compound, the T/C (dose: 27.0 mg/kg/injection, schedule: Q## X004 (ip), vehicle: other) was 412 % of control and 594 % of control, the T/C (dose: 30.0 mg/kg/injection, schedule: Q01DX001 (ip), vehicle: carboxymethylcellulose (CMC)) was 322 % of control and the T/C (dose: 30.0 mg/kg/injection, schedule: Q02DX008 (ip), vehicle: other) was 153 % of control and 256 % of control. For the same compound, the T/C (dose: 32.0 mg/kg/injection, schedule: Q## X032 (ip), vehicle: other) was 105 % of control, the T/C (dose: 36.0 mg/kg/injection, schedule: Q01DX001 (ip), vehicle: other) was 529 % of control and the T/C (dose: 40.0 mg/kg/injection, schedule: Q## X004 (ip), vehicle: other) was 209 % of control and 600 % of control. For the same compound, the T/C (dose: 41.0 mg/kg/injection, schedule: Q## X001 (oral), vehicle: other) was 383 % of control, the T/C (dose: 45.0 mg/kg/injection, schedule: Q01DX001 (ip), vehicle: carboxymethylcellulose (CMC)) was 344 % of control and the T/C (dose: 48.0 mg/kg/injection, schedule: Q## X032 (ip), vehicle: other) was 114 % of control and 120 % of control. For the same compound, the T/C (dose: 50.0 mg/kg/injection, schedule: Q01DX001 (oral), vehicle: carboxymethylcellulose (CMC)) was 716 % of control, the T/C (dose: 50.0 mg/kg/injection, schedule: Q01DX001 (sc), vehicle: carboxymethylcellulose (CMC)) was 733 % of control and the T/C (dose: 50.0 mg/kg/injection, schedule: Q01DX005 (oral), vehicle: carboxymethylcellulose (CMC)) was 200 % of control. For the same compound, the T/C (dose: 50.0 mg/kg/injection, schedule: Q04DX004 (ip), vehicle: carboxymethylcellulose (CMC)) was 183 % of control, the T/C (dose: 50.0 mg/kg/injection, schedule: Q04DX004 (oral), vehicle: carboxymethylcellulose (CMC)) was 205 % of control and the T/C (dose: 50.0 mg/kg/injection, schedule: Q## X006 (ip), vehicle: carboxymethylcellulose (CMC)) was 733 % of control. For the same compound, the T/C (dose: 50.0 mg/kg/injection, schedule: Q## X006 (oral), vehicle: carboxymethylcellulose (CMC)) was 116 % of control, the T/C (dose: 54.0 mg/kg/injection, schedule: Q01DX001 (ip), vehicle: carboxymethylcellulose (CMC)) was 282 % of control and the T/C (dose: 54.0 mg/kg/injection, schedule: Q01DX001 (oral), vehicle: other) was 352 % of control. For the same compound, the T/C (dose: 54.0 mg/kg/injection, schedule: Q## X001 (ip), vehicle: other) was 421 % of control, the T/C (dose: 54.0 mg/kg/injection, schedule: Q## X001 (oral), vehicle: other) was 226 % of control and the T/C (dose: 60.0 mg/kg/injection, schedule: Q## X004 (ip), vehicle: other) was 200 % of control. For the same compound, the T/C (dose: 67.0 mg/kg/injection, schedule: Q01DX001 (ip), vehicle: carboxymethylcellulose (CMC)) was 289 % of control, the T/C (dose: 100.0 mg/kg/injection, schedule: Q01DX001 (oral), vehicle: carboxymethylcellulose (CMC)) was 166 % of control and 244 % of control and the T/C (dose: 100.0 mg/kg/injection, schedule: Q04DX004 (oral), vehicle: carboxymethylcellulose (CMC)) was 122 % of control. For the same compound, the T/C (dose: 200.0 mg/kg/injection, schedule: Q01DX001 (oral), vehicle: carboxymethylcellulose (CMC)) was 155 % of control.

In the case of `CC(CO)(CO)[N+](=O)[O-]`, the T/C (dose: 100.0 mg/kg/injection, schedule: Q04DX003 (ip), vehicle: saline) is reported as 101 % of control, the T/C (dose: 200.0 mg/kg/injection, schedule: Q04DX003 (ip), vehicle: saline) is reported as 96 % of control and the T/C (dose: 400.0 mg/kg/injection, schedule: Q04DX003 (ip), vehicle: saline) is reported as 93 % of control.
